# In the supplement of paper PMC10307832:
# Tests used:
# Experiment in all cases: relative viability (nuclei count vs DMSO), 5 days (fraction); higher = more cells survive
# [1] = test system: LOU-NH91
# Outline: (§1)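 Relative viability was taken as the ratio of nuclei in treated wells to nuclei in vehicle wells. Lung cancer cell lines in 1536-well plates received compounds by pin tool one day after seeding, either one drug alone or a fixed anchor-drug dose plus five library-drug doses (not always all listed) in √10 steps. Nuclei were counted on 4× images after 5 days of treatment, and values are medians of duplicate plates.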
# [2] = test system: NCI-H1793
# Outline: as §1
# [3] = test system: NCI-H1650
# Outline: as §1
# [4] = test system: NCI-H441
# Outline: as §1
# [5] = test system: NCI-H2405
# Outline: as §1
# [6] = test system: NCI-H1993
# Outline: as §1
# [7] = test system: EPLC-272H
# Outline: as §1
# [8] = test system: RERF-LC-KJ
# Outline: as §1
# [9] = test system: NCI-H1734
# Outline: as §1
# [10] = test system: NCI-H520
# Outline: as §1
# [11] = test system: NCI-H2170
# Outline: as §1
# [12] = test system: NCI-H2347
# Outline: as §1
# [13] = test system: 201T
# Outline: as §1
# [14] = test system: NCI-H647
# Outline: as §1
# [15] = test system: NCI-H2023
# Outline: as §1
# [16] = test system: NCI-H3122
# Outline: as §1
# [17] = test system: NCI-H2085
# Outline: as §1
# [18] = test system: PC-14
# Outline: as §1
# [19] = test system: SW 900
# Outline: as §1
# [20] = test system: H3255
# Outline: as §1
# [21] = test system: HCC-44
# Outline: as §1
# [22] = test system: COR-L23
# Outline: as §1
compound,measurement,setting,value
O=C(O)c1ccc(-c2c[nH]c3ncc(-c4ccccc4)cc23)cc1C1CCCC1 + O=C(CCCCCCC(=O)Nc1ccccc1)NO [Vorinostat] (partner 1 µM),relative viability,[1]; first compound 0.04 µM,0.987
same,relative viability,[1]; first compound 0.1265 µM,0.992
same,relative viability,[1]; first compound 0.4 µM,0.942
same,relative viability,[1]; first compound 1.265 µM,0.86
same,relative viability,[2]; first compound 0.04 µM,0.835
same,relative viability,[2]; first compound 0.1265 µM,1.16
same,relative viability,[2]; first compound 0.4 µM,0.84
same,relative viability,[2]; first compound 1.265 µM,0.744
same,relative viability,[3]; first compound 0.04 µM,0.418
same,relative viability,[3]; first compound 0.1265 µM,0.513
same,relative viability,[3]; first compound 0.4 µM,0.538
same,relative viability,[3]; first compound 1.265 µM,0.476
same,relative viability,[4]; first compound 0.04 µM,0.866
same,relative viability,[4]; first compound 0.1265 µM,0.837
same,relative viability,[4]; first compound 0.4 µM,0.615
same,relative viability,[4]; first compound 1.265 µM,0.445
same,relative viability,[5]; first compound 0.04 µM,1.02
same,relative viability,[5]; first compound 0.1265 µM,1.12
same,relative viability,[5]; first compound 0.4 µM,0.944
same,relative viability,[5]; first compound 1.265 µM,0.668
same,relative viability,[6]; first compound 0.04 µM,0.908
same,relative viability,[6]; first compound 0.1265 µM,1.07
same,relative viability,[6]; first compound 0.4 µM,0.725
same,relative viability,[6]; first compound 1.265 µM,0.311
same,relative viability,[7]; first compound 0.04 µM,0.503
same,relative viability,[7]; first compound 0.1265 µM,0.654
same,relative viability,[7]; first compound 0.4 µM,0.483
same,relative viability,[7]; first compound 1.265 µM,0.261
same,relative viability,[8]; first compound 0.04 µM,0.714
same,relative viability,[8]; first compound 0.1265 µM,0.74
same,relative viability,[8]; first compound 0.4 µM,0.724
same,relative viability,[8]; first compound 1.265 µM,0.574
same,relative viability,[9]; first compound 0.04 µM,0.866
same,relative viability,[9]; first compound 0.1265 µM,0.858
same,relative viability,[9]; first compound 0.4 µM,0.876
same,relative viability,[9]; first compound 1.265 µM,0.648
same,relative viability,[10]; first compound 0.04 µM,0.643
same,relative viability,[10]; first compound 0.1265 µM,0.816
same,relative viability,[10]; first compound 0.4 µM,0.71
same,relative viability,[10]; first compound 1.265 µM,0.484
same,relative viability,[11]; first compound 0.04 µM,0.82
same,relative viability,[11]; first compound 0.1265 µM,0.863
same,relative viability,[11]; first compound 0.4 µM,0.893
same,relative viability,[11]; first compound 1.265 µM,0.734
same,relative viability,[12]; first compound 0.04 µM,0.576
same,relative viability,[12]; first compound 0.1265 µM,0.773
same,relative viability,[12]; first compound 0.4 µM,0.597
same,relative viability,[12]; first compound 1.265 µM,0.46
same,relative viability,[13]; first compound 0.04 µM,0.949
same,relative viability,[13]; first compound 0.1265 µM,0.963
same,relative viability,[13]; first compound 0.4 µM,0.952
same,relative viability,[13]; first compound 1.265 µM,0.989
same,relative viability,[14]; first compound 0.04 µM,0.645
same,relative viability,[14]; first compound 0.1265 µM,0.47
same,relative viability,[14]; first compound 0.4 µM,0.491
same,relative viability,[14]; first compound 1.265 µM,0.361
same,relative viability,[15]; first compound 0.04 µM,0.825
same,relative viability,[15]; first compound 0.1265 µM,0.967
same,relative viability,[15]; first compound 0.4 µM,0.523
same,relative viability,[15]; first compound 1.265 µM,0.507
same,relative viability,[16]; first compound 0.04 µM,1.1
same,relative viability,[16]; first compound 0.1265 µM,1.07
same,relative viability,[16]; first compound 0.4 µM,1.12
same,relative viability,[16]; first compound 1.265 µM,0.855
same,relative viability,[17]; first compound 0.04 µM,0.793
same,relative viability,[17]; first compound 0.1265 µM,0.857
same,relative viability,[17]; first compound 0.4 µM,0.779
same,relative viability,[17]; first compound 1.265 µM,0.642
same,relative viability,[18]; first compound 0.04 µM,0.733
same,relative viability,[18]; first compound 0.1265 µM,0.781
same,relative viability,[18]; first compound 0.4 µM,0.786
same,relative viability,[18]; first compound 1.265 µM,0.723
same,relative viability,[19]; first compound 0.04 µM,0.602
same,relative viability,[19]; first compound 0.1265 µM,0.611
same,relative viability,[19]; first compound 0.4 µM,0.582
same,relative viability,[19]; first compound 1.265 µM,0.437
same,relative viability,[20]; first compound 0.04 µM,0.872
same,relative viability,[20]; first compound 0.1265 µM,0.795
same,relative viability,[20]; first compound 0.4 µM,0.83
same,relative viability,[20]; first compound 1.265 µM,0.791
same,relative viability,[21]; first compound 0.04 µM,1.04
same,relative viability,[21]; first compound 0.1265 µM,1.06
same,relative viability,[21]; first compound 0.4 µM,1.02
same,relative viability,[21]; first compound 1.265 µM,0.971
same,relative viability,[22]; first compound 0.04 µM,0.468
same,relative viability,[22]; first compound 0.1265 µM,0.403
same,relative viability,[22]; first compound 0.4 µM,0.467
same,relative viability,[22]; first compound 1.265 µM,0.233
O=C(O)c1ccc(-c2c[nH]c3ncc(-c4ccccc4)cc23)cc1C1CCCC1 + O=C(c1cc(Cc2n[nH]c(=O)c3ccccc23)ccc1F)N1CCN(C(=O)C2CC2)CC1 [Olaparib] (partner 8 µM),relative viability,[1]; first compound 0.04 µM,0.893
same,relative viability,[1]; first compound 0.1265 µM,0.979
same,relative viability,[1]; first compound 0.4 µM,0.908
same,relative viability,[1]; first compound 1.265 µM,0.754
same,relative viability,[2]; first compound 0.04 µM,0.878
same,relative viability,[2]; first compound 0.1265 µM,1.03
same,relative viability,[2]; first compound 0.4 µM,0.963
same,relative viability,[2]; first compound 1.265 µM,0.512
same,relative viability,[3]; first compound 0.04 µM,0.735
same,relative viability,[3]; first compound 0.1265 µM,0.815
same,relative viability,[3]; first compound 0.4 µM,0.65
same,relative viability,[3]; first compound 1.265 µM,0.606
same,relative viability,[4]; first compound 0.04 µM,0.606
same,relative viability,[4]; first compound 0.1265 µM,0.563
same,relative viability,[4]; first compound 0.4 µM,0.467
same,relative viability,[4]; first compound 1.265 µM,0.265
same,relative viability,[5]; first compound 0.04 µM,0.823
same,relative viability,[5]; first compound 0.1265 µM,0.951
same,relative viability,[5]; first compound 0.4 µM,0.778
same,relative viability,[5]; first compound 1.265 µM,0.584
same,relative viability,[6]; first compound 0.04 µM,0.902
same,relative viability,[6]; first compound 0.1265 µM,1.19
same,relative viability,[6]; first compound 0.4 µM,1.04
same,relative viability,[6]; first compound 1.265 µM,0.974
same,relative viability,[7]; first compound 0.04 µM,0.924
same,relative viability,[7]; first compound 0.1265 µM,1.05
same,relative viability,[7]; first compound 0.4 µM,0.566
same,relative viability,[7]; first compound 1.265 µM,0.257
same,relative viability,[8]; first compound 0.04 µM,0.9
same,relative viability,[8]; first compound 0.1265 µM,0.788
same,relative viability,[8]; first compound 0.4 µM,0.786
same,relative viability,[8]; first compound 1.265 µM,0.473
same,relative viability,[9]; first compound 0.04 µM,0.562
same,relative viability,[9]; first compound 0.1265 µM,0.736
same,relative viability,[9]; first compound 0.4 µM,0.568
same,relative viability,[9]; first compound 1.265 µM,0.495
same,relative viability,[10]; first compound 0.04 µM,0.337
same,relative viability,[10]; first compound 0.1265 µM,0.416
same,relative viability,[10]; first compound 0.4 µM,0.348
same,relative viability,[10]; first compound 1.265 µM,0.271
same,relative viability,[11]; first compound 0.04 µM,0.632
same,relative viability,[11]; first compound 0.1265 µM,0.606
same,relative viability,[11]; first compound 0.4 µM,0.569
same,relative viability,[11]; first compound 1.265 µM,0.468
same,relative viability,[12]; first compound 0.04 µM,0.593
same,relative viability,[12]; first compound 0.1265 µM,0.608
same,relative viability,[12]; first compound 0.4 µM,0.54
same,relative viability,[12]; first compound 1.265 µM,0.51
same,relative viability,[13]; first compound 0.04 µM,0.837
same,relative viability,[13]; first compound 0.1265 µM,0.866
same,relative viability,[13]; first compound 0.4 µM,0.827
same,relative viability,[13]; first compound 1.265 µM,0.775
same,relative viability,[14]; first compound 0.04 µM,0.5
same,relative viability,[14]; first compound 0.1265 µM,0.619
same,relative viability,[14]; first compound 0.4 µM,0.494
same,relative viability,[14]; first compound 1.265 µM,0.322
same,relative viability,[15]; first compound 0.04 µM,0.475
same,relative viability,[15]; first compound 0.1265 µM,0.485
same,relative viability,[15]; first compound 0.4 µM,0.408
same,relative viability,[15]; first compound 1.265 µM,0.238
same,relative viability,[16]; first compound 0.04 µM,0.654
same,relative viability,[16]; first compound 0.1265 µM,0.666
same,relative viability,[16]; first compound 0.4 µM,0.602
same,relative viability,[16]; first compound 1.265 µM,0.617
same,relative viability,[17]; first compound 0.04 µM,0.74
same,relative viability,[17]; first compound 0.1265 µM,0.793
same,relative viability,[17]; first compound 0.4 µM,0.746
same,relative viability,[17]; first compound 1.265 µM,0.474
same,relative viability,[18]; first compound 0.04 µM,0.234
same,relative viability,[18]; first compound 0.1265 µM,0.263
same,relative viability,[18]; first compound 0.4 µM,0.268
same,relative viability,[18]; first compound 1.265 µM,0.243
same,relative viability,[19]; first compound 0.04 µM,0.768
same,relative viability,[19]; first compound 0.1265 µM,1.04
same,relative viability,[19]; first compound 0.4 µM,0.702
same,relative viability,[19]; first compound 1.265 µM,0.475
same,relative viability,[20]; first compound 0.04 µM,0.574
same,relative viability,[20]; first compound 0.1265 µM,0.57
same,relative viability,[20]; first compound 0.4 µM,0.514
same,relative viability,[20]; first compound 1.265 µM,0.507
same,relative viability,[21]; first compound 0.04 µM,0.998
same,relative viability,[21]; first compound 0.1265 µM,0.975
same,relative viability,[21]; first compound 0.4 µM,0.975
same,relative viability,[21]; first compound 1.265 µM,0.95
same,relative viability,[22]; first compound 0.04 µM,0.311
same,relative viability,[22]; first compound 0.1265 µM,0.353
same,relative viability,[22]; first compound 0.4 µM,0.279
same,relative viability,[22]; first compound 1.265 µM,0.258
